Measurements published in ChEMBL document CHEMBL4340512, “Discovery of novel triazolo[4,3-b]pyridazin-3-yl-quinoline derivatives as PIM inhibitors” (Eur J Med Chem, 2019).

Legend:
PC-3 [1] = experiment: Antiproliferative activity against human PC3 assessed as combination index at 20 uM incubated for 72 hrs in presence of GI50 dose of Vorinostat by CellTiter-Glo luminescence assay; format: functional
HCT-116 [2] = experiment: Antiproliferative activity against human HCT116 cells incubated for 72 hrs by CellTiter-Glo luminescence assay; format: functional; settings: HCT-116, 72 h
SK-MEL19 [3] = experiment: Antiproliferative activity against human SK-MEL-19 assessed as combination index at 5 uM incubated for 72 hrs in presence of GI50 dose of Palbociclib by CellTiter-Glo luminescence assay; format: functional
T84 = experiment: Antiproliferative activity against human T84 cells incubated for 72 hrs by CellTiter-Glo luminescence assay; format: functional; settings: T84, 72 h
MV4-11 = experiment: Antiproliferative activity against human MV4-11 cells incubated for 72 hrs by CellTiter-Glo luminescence assay; format: functional; settings: MV4-11, 72 h
[4] = target: Serine/threonine-protein kinase pim-2 (Homo sapiens, UniProt Q9P1W9); experiment: Inhibition of His tagged human recombinant PIM2 using PIM tide (ARKRRRHPSGPPTA) as substrate incubated for 1 hr by fluorescence based assay
SK-MEL19 [5] = experiment: Antiproliferative activity against human SK-MEL-19 assessed as combination index at 5 uM incubated for 72 hrs in presence of GI50 dose of GDC-0941 by CellTiter-Glo luminescence assay; format: functional
ASPC1 = experiment: Antiproliferative activity against human Aspc-1 cells incubated for 72 hrs by CellTiter-Glo luminescence assay; format: functional; settings: ASPC1, 72 h
K562 = experiment: Antiproliferative activity against human K562 cells incubated for 72 hrs by CellTiter-Glo luminescence assay; format: functional; settings: K562, 72 h
NCI-H1650 = experiment: Antiproliferative activity against human NCI-H1650 cells incubated for 72 hrs by CellTiter-Glo luminescence assay; format: functional; settings: NCI-H1650, 72 h
A673 = experiment: Antiproliferative activity against human A673 cells incubated for 72 hrs by CellTiter-Glo luminescence assay; format: functional; settings: A673, 72 h
Raji = experiment: Antiproliferative activity against human Raji cells incubated for 72 hrs by CellTiter-Glo luminescence assay; format: functional
SW-620 = experiment: Antiproliferative activity against human SW620 cells incubated for 72 hrs by CellTiter-Glo luminescence assay; format: functional; settings: SW-620, 72 h
LNCaP = experiment: Antiproliferative activity against human LNCAP cells incubated for 72 hrs by CellTiter-Glo luminescence assay; format: functional
JeKo-1 = experiment: Antiproliferative activity against human JeKo1 assessed as combination index at 10 uM incubated for 72 hrs in presence of GI50 dose of GDC-0941 by CellTiter-Glo luminescence assay; format: functional
[6] = target: T1, Receptor-type tyrosine-protein kinase FLT3 (Homo sapiens, UniProt P36888); experiment: Inhibition of human FLT3 using EAIYAAPFAKKK as substrate incubated for 60 mins by fluorescence based assay
T1 sequence (P36888 whole entry): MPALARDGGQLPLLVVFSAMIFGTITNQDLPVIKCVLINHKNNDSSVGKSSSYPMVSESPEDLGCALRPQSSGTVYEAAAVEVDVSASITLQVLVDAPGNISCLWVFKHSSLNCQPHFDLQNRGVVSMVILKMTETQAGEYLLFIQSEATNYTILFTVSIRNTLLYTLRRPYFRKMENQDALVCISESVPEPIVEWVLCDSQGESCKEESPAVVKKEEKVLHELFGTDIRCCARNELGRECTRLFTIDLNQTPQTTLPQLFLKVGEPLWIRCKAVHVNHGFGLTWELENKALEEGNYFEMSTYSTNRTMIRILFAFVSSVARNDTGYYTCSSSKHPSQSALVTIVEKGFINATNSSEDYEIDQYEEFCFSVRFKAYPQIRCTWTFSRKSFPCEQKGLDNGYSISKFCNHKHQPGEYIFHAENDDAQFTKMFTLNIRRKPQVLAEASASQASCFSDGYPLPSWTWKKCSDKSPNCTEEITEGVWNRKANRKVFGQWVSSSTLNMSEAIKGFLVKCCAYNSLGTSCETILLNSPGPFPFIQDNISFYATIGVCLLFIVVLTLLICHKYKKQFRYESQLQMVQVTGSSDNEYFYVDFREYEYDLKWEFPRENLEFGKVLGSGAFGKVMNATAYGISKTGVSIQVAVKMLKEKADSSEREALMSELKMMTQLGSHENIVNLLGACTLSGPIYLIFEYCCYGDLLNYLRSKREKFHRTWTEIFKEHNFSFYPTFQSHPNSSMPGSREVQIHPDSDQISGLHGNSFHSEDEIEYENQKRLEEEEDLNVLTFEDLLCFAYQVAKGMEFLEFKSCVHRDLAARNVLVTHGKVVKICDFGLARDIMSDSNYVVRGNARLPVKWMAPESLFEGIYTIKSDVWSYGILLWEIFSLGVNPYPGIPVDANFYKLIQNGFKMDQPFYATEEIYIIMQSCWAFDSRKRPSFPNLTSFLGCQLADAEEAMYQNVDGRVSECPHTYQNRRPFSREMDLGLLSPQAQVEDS

HCT-116 [7] = experiment: Antiproliferative activity against human HCT116 assessed as combination index at 20 uM incubated for 72 hrs in presence of GI50 dose of Lapatinib by CellTiter-Glo luminescence assay; format: functional
U-251 = experiment: Antiproliferative activity against human U251 cells incubated for 72 hrs by CellTiter-Glo luminescence assay; format: functional; settings: U-251, 72 h
[8] = target: Serine/threonine-protein kinase pim-1 (Homo sapiens, UniProt P11309); experiment: Inhibition of His tagged human recombinant PIM1 using PIM tide (ARKRRRHPSGPPTA) as substrate incubated for 1 hr by fluorescence based assay
PC-3 [9] = experiment: Antiproliferative activity against human PC3 cells incubated for 72 hrs by CellTiter-Glo luminescence assay; format: functional; settings: PC-3, 72 h
T47D = experiment: Antiproliferative activity against human T47D assessed as combination index at 20 uM incubated for 72 hrs in presence of GI50 dose of GDC-0941 by CellTiter-Glo luminescence assay; format: functional
MDA-MB-231 [10] = experiment: Antiproliferative activity against human MDA-MB-231 assessed as combination index at 20 uM incubated for 72 hrs in presence of GI50 dose of PD-0325901 by CellTiter-Glo luminescence assay; format: functional
MDA-MB-231 [11] = experiment: Antiproliferative activity against human MDA-MB-231 assessed as combination index at 20 uM incubated for 72 hrs in presence of GI50 dose of GDC-0941 by CellTiter-Glo luminescence assay; format: functional
NCI-H522 = experiment: Antiproliferative activity against human NCI-H522 cells incubated for 72 hrs by CellTiter-Glo luminescence assay; format: functional; settings: NCI-H522, 72 h
PC-3 [12] = experiment: Antiproliferative activity against human PC3 assessed as combination index at 20 uM incubated for 72 hrs in presence of GI50 dose of GDC-0941 by CellTiter-Glo luminescence assay; format: functional
MIA PaCa-2 = experiment: Antiproliferative activity against human MIAPaCa2 assessed as combination index at 20 uM incubated for 72 hrs in presence of GI50 dose of Lapatinib by CellTiter-Glo luminescence assay; format: functional

Chain of Serine/threonine-protein kinase pim-1 (P11309 whole entry): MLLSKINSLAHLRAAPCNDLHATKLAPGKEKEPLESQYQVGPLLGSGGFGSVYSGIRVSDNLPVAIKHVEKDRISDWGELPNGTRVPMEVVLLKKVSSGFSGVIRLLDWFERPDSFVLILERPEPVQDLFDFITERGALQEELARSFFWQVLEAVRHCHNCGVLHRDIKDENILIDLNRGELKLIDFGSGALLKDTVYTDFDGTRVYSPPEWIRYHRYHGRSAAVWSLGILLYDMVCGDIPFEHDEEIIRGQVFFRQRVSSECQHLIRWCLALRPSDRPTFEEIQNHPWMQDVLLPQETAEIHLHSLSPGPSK
Chain of Serine/threonine-protein kinase pim-2 (Q9P1W9 whole entry): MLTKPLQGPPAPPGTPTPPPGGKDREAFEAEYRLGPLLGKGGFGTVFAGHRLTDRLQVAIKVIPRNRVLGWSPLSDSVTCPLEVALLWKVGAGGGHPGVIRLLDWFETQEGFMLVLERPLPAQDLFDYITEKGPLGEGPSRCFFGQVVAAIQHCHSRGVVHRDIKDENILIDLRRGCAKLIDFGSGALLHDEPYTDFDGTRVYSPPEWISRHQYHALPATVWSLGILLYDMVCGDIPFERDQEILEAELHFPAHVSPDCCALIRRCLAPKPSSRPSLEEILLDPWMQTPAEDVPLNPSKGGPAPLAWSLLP

- GI50 (HCT-116 [2]): 21.2 µM
- GI50 (MV4-11): 6.46 µM
- IC50 [4]: 5.53 µM
- GI50 (ASPC1): 7.25 µM
- GI50 (K562): 19.9 µM
- GI50 (NCI-H1650): 22.5 µM
- GI50 (Raji): 20 µM
- GI50 (SW-620): 8.73 µM
- GI50 (LNCaP): 18.6 µM
- IC50 [6]: > 10 µM
- GI50 (U-251): 17.8 µM
- IC50 [8]: 0.007 µM
- GI50 (PC-3 [9]): 17.1 µM
- GI50 (NCI-H522): 9.7 µM
SMILES: COCCN1CCOc2c1cnn1c(-c3ccc4cccc(NCC5CCNCC5)c4n3)nnc21
- CI (PC-3 [1]): 0.346
- CI (SK-MEL19 [3]): 0.351
- GI50 (T84): 23.2 µM
- CI (SK-MEL19 [5]): 0.308
- GI50 (A673): 12.7 µM
- CI (JeKo-1): 0.295
- CI (HCT-116 [7]): 0.001
- CI (T47D): 0.598
- CI (MDA-MB-231 [10]): 0.32
- CI (MDA-MB-231 [11]): 0.0001
- CI (PC-3 [12]): 0.094
- CI (MIA PaCa-2): 0.069
